ChEMBL document CHEMBL1142481, “Novel 5-HT(1A/1B/1D) receptors antagonists with potent 5-HT reuptake inhibitory activity” (Bioorg Med Chem Lett, 2008)

Assays:
[1] = molecular target: T1, 5-hydroxytryptamine receptor 1D (Homo sapiens, UniProt P28221); experiment: Displacement of [3H]5HT from human cloned 5HT1D receptor expressed in CHO cells; format: cell-based
[2] = molecular target: T2, 5-hydroxytryptamine receptor 1B (Homo sapiens, UniProt P28222); experiment: Displacement of [3H]5HT from human cloned 5HT1B receptor expressed in CHO cells; format: cell-based
T2 sequence (P28222 whole entry): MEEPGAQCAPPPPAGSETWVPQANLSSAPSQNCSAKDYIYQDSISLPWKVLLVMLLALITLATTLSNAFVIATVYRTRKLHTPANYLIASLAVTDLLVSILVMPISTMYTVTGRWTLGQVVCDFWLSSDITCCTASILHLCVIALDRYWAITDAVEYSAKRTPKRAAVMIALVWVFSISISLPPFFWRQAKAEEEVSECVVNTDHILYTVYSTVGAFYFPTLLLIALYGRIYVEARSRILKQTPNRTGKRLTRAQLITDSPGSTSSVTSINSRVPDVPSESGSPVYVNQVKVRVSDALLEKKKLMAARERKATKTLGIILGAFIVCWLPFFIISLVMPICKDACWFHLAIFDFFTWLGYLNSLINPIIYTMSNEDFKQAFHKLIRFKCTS

[3] = molecular target: Sodium-dependent serotonin transporter (Rattus norvegicus, UniProt P31652); experiment: Inhibition of [3H]5HT reuptake at SERT in rat cortical synaptosomes; format: subcellular, Brain
Sodium-dependent serotonin transporter, sequence (P31652 whole entry): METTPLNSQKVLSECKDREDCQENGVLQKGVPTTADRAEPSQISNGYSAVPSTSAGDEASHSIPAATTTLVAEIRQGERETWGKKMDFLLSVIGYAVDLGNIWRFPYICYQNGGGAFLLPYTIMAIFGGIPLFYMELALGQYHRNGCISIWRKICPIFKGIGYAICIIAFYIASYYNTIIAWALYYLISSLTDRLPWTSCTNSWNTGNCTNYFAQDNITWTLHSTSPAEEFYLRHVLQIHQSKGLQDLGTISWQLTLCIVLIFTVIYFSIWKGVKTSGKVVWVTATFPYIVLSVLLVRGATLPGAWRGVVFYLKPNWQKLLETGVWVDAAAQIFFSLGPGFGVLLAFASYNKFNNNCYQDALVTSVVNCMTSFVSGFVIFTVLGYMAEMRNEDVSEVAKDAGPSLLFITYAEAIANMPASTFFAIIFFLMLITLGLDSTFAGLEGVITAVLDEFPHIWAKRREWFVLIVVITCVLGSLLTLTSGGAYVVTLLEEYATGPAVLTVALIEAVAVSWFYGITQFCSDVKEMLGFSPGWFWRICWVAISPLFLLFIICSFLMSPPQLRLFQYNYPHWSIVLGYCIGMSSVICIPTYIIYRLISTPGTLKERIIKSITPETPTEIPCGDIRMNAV

[4] = molecular target: T3, 5-hydroxytryptamine receptor 1A (Homo sapiens, UniProt P08908); experiment: Displacement of [3H]5HT from human cloned 5HT1A receptor expressed in CHO cells; format: cell-based
T3 sequence (P08908 whole entry): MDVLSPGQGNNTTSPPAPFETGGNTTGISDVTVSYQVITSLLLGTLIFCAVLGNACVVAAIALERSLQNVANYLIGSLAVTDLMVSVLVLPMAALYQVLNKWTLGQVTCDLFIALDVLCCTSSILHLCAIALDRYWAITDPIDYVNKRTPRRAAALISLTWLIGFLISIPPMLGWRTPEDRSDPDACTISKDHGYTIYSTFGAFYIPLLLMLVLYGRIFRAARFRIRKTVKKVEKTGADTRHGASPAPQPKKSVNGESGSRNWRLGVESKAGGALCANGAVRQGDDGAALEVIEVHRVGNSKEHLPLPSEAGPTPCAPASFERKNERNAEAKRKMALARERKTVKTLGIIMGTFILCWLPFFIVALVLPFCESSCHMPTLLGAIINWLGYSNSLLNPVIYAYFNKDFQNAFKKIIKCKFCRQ

[5] = molecular target: T1, 5-hydroxytryptamine receptor 1D; experiment: Intrinsic activity at human cloned 5HT1D receptor expressed in CHO cells; format: cell-based
[6] = molecular target: T2, 5-hydroxytryptamine receptor 1B; experiment: Intrinsic activity at human cloned 5HT1B receptor expressed in CHO cells; format: cell-based
[7] = molecular target: T4, 5-hydroxytryptamine receptor 1A (Homo sapiens) (UniProt P08908); experiment: Intrinsic activity at human cloned 5HT1A receptor expressed in CHO cells; format: cell-based
T4 sequence (whole entry): T3 sequence (P08908 whole entry)

[8] = Clearance in rat at 3 mg/kg, po; format: ADME, organism-based; parameters: dose 3 mg/kg, route oral; details: in vivo
[9] = Oral bioavailability in rat at 3 mg/kg; format: ADME, organism-based; details: in vivo
[10] = Cmax in rat at 3 mg/kg, po; format: ADME, organism-based; parameters: dose 3 mg/kg, route oral; details: in vivo

T1 sequence (P28221 whole entry): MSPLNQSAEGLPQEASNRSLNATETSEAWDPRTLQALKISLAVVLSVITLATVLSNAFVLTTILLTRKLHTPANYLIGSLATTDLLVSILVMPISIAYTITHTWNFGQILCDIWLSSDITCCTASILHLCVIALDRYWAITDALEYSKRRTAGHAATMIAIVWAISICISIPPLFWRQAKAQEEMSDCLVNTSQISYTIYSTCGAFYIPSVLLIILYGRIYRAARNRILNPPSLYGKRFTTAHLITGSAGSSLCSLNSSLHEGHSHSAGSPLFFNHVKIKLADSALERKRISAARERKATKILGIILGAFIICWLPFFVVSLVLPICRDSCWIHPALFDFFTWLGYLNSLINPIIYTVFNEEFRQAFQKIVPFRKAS

Structure (SMILES)	Ki [1] [nM]	Ki [2] [nM]	Ki [3] [nM]	Ki [4] [nM]	other results
Cc1ccc2c(OC3CCN(CCc4ccc5c(c4)NC(=O)CO5)CC3)cccc2n1	6.31	25.1	100	316	
Cc1ccc2c(OCC(C)N3CCC(Cc4ccc5c(c4)NC(=O)CO5)CC3)cccc2n1 (single isomer, unassigned; enantiomer II)	501	100		100	
Cc1ccc2c(N3CCN(Cc4ccc5c(c4)NC(=O)CO5)CC3)cccc2n1	126	> 10000	794	631	
Cc1ccc2c(OC3CCN(Cc4ccc5c(c4)NC(=O)CO5)CC3)cccc2n1	1260	> 2510	200	> 10000	
Cc1ccc2c(OCC(C)N3CCC(Cc4ccc5c(c4)NC(=O)CO5)CC3)cccc2n1 (single isomer, unassigned; enantiomer I)	251	39.8		50.1	
Cc1ccc2c(OCCN3CCC(Cc4ccc5c(c4)NC(=O)CO5)CC3)cccc2n1					Intrinsic activity [5]: 0.5; Intrinsic activity [6]: 0.5; Intrinsic activity [7]: 0.1
Cc1ccc2c(OC3CCN(CC(=O)c4ccc5c(c4)NC(=O)CO5)CC3)cccc2n1	2000	> 5010		> 10000	
Cc1ccc2c(N3CCN(CCCc4ccc5c(c4)NC(=O)CO5)CC3)cccc2n1					Intrinsic activity [7]: 0
Cc1ccc2c(OC(C)CN3CCC(Cc4ccc5c(c4)NC(=O)CO5)CC3)cccc2n1 (racemic)	79.4	200	251	398	
Cc1ccc2c(N3CCN(CCc4ccc5c(c4)NC(=O)CO5)CC3)cccc2n1					CL/F [8]: 7 mL/min/kg; Intrinsic activity [6]: 0.1; bioavailability [9]: 72%; Cmax [10]: 360 ng/mL; Intrinsic activity [7]: 0.2

More lines, main results first:

Ki [1] [nM]	Ki [2] [nM]	Ki [3] [nM]	Ki [4] [nM]	Structure (SMILES)	other results
			> 1580	Cc1ccc2c(OCC3CCN(Cc4ccc5c(c4)NC(=O)CO5)CC3)cccc2n1	
251	631	794	501	Cc1ccc2c(OCC3CCN(CC(=O)c4ccc5c(c4)NC(=O)CO5)CC3)cccc2n1	
			158	Cc1ccc2c(OCCCN3CC(Oc4ccc5c(c4)NC(=O)CO5)C3)cccc2n1	
7.94	50.1	63.1	50.1	Cc1ccc2c(OCCN3CC(COc4ccc5c(c4)NC(=O)CO5)C3)cccc2n1	Intrinsic activity [5]: 0.5; Intrinsic activity [6]: 0.5; Intrinsic activity [7]: 0.3
158	316		79.4	Cc1ccc2c(OCCCN3CC(COc4ccc5c(c4)NC(=O)CO5)C3)cccc2n1	
